Values quoted from earlier work as cited in patent US11279710B2, “Processes for preparing ACC inhibitors and solid forms thereof” (Gilead Sciences, Inc., priority 2017, dated 2022).

How the values were obtained:
ACC2 = ACC2 isolated from rat, mouse, monkey and human
[1] = rats, acute (46 min) treatment
[2] = sucrose-fed rats, three weeks
[3] = tested on: insulin-resistant rat muscle tissue; settings: within 30 min of compound administration
ACC1 = ACC1 isolated from rat, mouse, monkey and human
[4] = biological target: T1, propionyl-CoA carboxylase (Homo sapiens, UniProt P05165+P05166)
T1 sequence (P05165 53-728): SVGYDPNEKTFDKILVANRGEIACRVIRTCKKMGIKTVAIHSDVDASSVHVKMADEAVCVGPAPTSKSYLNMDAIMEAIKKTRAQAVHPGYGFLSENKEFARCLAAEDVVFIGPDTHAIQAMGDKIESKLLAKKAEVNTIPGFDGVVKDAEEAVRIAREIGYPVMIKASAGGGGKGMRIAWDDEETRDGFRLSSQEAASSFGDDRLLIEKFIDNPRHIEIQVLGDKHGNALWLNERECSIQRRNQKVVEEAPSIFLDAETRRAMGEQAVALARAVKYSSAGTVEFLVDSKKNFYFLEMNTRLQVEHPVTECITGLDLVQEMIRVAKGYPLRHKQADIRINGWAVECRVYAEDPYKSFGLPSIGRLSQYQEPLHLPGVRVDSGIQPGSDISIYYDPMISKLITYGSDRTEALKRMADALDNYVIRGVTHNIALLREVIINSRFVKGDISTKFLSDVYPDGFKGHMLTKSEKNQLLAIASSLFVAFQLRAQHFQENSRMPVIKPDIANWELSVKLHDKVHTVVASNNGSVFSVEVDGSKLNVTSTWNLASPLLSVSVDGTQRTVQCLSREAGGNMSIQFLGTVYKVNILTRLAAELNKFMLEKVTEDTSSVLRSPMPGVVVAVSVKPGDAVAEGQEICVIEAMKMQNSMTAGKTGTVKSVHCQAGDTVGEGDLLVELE
T1 sequence (P05166 29-539): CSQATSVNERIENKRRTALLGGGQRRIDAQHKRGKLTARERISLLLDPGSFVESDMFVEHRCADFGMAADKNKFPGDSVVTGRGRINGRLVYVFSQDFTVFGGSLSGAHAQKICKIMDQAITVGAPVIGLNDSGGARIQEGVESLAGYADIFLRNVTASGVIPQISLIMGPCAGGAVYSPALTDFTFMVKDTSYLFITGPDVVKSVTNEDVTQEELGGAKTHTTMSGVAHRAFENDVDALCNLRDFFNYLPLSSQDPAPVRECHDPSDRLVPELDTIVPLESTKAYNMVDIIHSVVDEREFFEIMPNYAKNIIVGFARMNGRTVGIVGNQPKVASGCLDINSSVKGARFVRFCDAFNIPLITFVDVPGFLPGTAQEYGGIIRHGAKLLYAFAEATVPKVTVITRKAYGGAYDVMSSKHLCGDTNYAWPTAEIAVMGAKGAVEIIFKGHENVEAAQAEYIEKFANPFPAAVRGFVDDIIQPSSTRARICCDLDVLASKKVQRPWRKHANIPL

pyruvate carboxylase = biological target: T2, pyruvate carboxylase (Homo sapiens, UniProt P11498)
T2 sequence (P11498 21-1178): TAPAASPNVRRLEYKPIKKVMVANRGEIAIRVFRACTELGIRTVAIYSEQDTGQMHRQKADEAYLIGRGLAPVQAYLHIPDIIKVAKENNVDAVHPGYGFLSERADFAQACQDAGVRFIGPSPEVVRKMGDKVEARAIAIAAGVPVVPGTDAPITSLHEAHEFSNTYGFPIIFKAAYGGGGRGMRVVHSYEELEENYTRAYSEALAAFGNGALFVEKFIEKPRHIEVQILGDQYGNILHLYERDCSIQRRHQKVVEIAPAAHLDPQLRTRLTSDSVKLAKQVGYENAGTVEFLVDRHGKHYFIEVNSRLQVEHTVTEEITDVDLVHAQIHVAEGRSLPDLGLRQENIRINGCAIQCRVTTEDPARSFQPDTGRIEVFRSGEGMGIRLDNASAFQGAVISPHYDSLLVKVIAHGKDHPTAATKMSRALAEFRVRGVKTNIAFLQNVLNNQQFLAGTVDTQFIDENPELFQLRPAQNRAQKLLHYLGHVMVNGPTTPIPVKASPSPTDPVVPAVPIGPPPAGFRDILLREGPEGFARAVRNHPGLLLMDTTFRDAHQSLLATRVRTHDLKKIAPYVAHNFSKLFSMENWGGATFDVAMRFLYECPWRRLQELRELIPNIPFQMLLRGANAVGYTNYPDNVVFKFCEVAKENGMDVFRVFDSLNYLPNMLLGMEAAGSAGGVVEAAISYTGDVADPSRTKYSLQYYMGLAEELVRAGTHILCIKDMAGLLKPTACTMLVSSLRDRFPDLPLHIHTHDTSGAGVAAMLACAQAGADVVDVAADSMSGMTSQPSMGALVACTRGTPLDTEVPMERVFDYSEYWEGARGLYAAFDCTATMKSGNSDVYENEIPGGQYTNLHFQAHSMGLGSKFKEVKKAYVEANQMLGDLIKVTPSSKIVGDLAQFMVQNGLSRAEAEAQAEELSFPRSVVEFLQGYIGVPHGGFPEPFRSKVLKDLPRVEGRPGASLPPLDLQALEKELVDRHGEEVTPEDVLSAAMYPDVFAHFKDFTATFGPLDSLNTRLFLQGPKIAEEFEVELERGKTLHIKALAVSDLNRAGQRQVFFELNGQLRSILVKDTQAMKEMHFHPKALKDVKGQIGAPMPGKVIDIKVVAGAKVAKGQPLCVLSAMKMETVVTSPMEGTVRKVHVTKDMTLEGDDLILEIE

In the case of `CO[C@H]1CCCC[C@@H](c2ccccc2)OC(=O)[C@@H](C)[C@@]2(O)O[C@H]([C@@H](C)[C@H](O)[C@H]2OC)[C@@H](C)/C=C/[C@H]1OC` [soraphen A], the lipogenesis (human liposarcoma) is listed as “inhibited” and the tumor cell growth (human liposarcoma) is listed as “inhibited”.

In the case of `O=C(c1c2ccccc2cc2ccccc12)N1CCC(N2CCC[C@@H](C(=O)N3CCOCC3)C2)CC1` [CP-640186], the IC50 (ACC2) is listed as ~60 nM, the FA clearance [1] is listed as “stimulated” and the glucose clearance [1] is listed as “without decreasing”. For the same molecule, the “hyperinsulinemia produced by the high sucrose diet” value [2] was “reduced”, the insulin sensitivity [2] was “improved” and the lean body mass [2] was “without reducing”. The leptin levels [2] was “reduced”, the “liver, muscle and adipose triglycerides” value [2] was “time- and dose-dependently reduced” and the plasma glucose levels [2] was “without changing”. For the same molecule, the body weight ([2]; due to selective fat reduction) was “reduced”, the insulin sensitivity [3] was “stimulation” and the FA oxidation (rat muscle slices) was “stimulated”. The IC50 (ACC1) was ~60 nM, the FA oxidation (C2C12 cells) was “stimulated” and the CPT-I activity (Hep-G2 cells) was “increased”. For the same molecule, the FA synthesis (Hep-G2 cells) was “reduced”, the apoA1 secretion (Hep-G2 cells) was “without affecting” and the apoB secretion (Hep-G2 cells) was “reduced”. For the same molecule, the cholesterol synthesis (Hep-G2 cells) was “without affecting”, the “triglyceride synthesis and secretion” value (Hep-G2 cells) was “reduced” and the “liver and adipose tissue FA synthesis” value (experimental animals) was “reduced”. For the same molecule, the “whole body FA oxidation” value (experimental animals) was “increased”, the malonyl-CoA concentration (lipogenic and oxidative tissues, fed and fasted state) was “acutely reduced” and the “inhibition of propionyl-CoA carboxylase” value [4] was “without inhibiting”. For the same molecule, the “inhibition of pyruvate carboxylase” value (pyruvate carboxylase) was “without inhibiting”.

In the case of `COc1ccccc1[C@H](Cn1c(=O)n(C(C)(C)C(=O)O)c(=O)c2c(C)c(-c3ncco3)sc21)OC1CCOCC1` [Compound I, (R)-2-(1-(2-(2-methoxyphenyl)-2-((tetrahydro-2H-pyran-4-yl)oxy)ethyl)-5-methyl-6-(oxazol-2-yl)-2,4-dioxo-1,2-dihydrothieno[2,3-d]pyrimidin-3(4H)-yl)-2-methylpropanoic acid], the ACC inhibitory activity (ACC) is listed as “exhibits ACC inhibitory activity”.
